Assays:
S. aureus DSM 20231 [1] = assay: Bliss interaction score (quartile over a dose matrix) (fitness difference); higher = more antagonism (negative = synergy)
Outline: (§1)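 Growth was read as OD595 when cultures entered stationary phase, and each value was divided by the plate's robust no-drug mean and capped at 1. This normalised ratio is the fitness value, and fitness for each single drug came from the combination data. The Bliss score subtracts the expected fitness, taken as the product, from the observed fitness and is given as quartiles across technical, biological and donor/recipient replicates.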

B. subtilis 168 [2] = assay: as above
Outline: as §1

S. aureus Newman = assay: as above
Outline: as §1

S. pneumoniae D39V = assay: as above
Outline: as §1

S. aureus DSM 20231 [3] = assay: fitness (endpoint OD595 vs no drug) (fraction); higher = more growth
Outline: (§2)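 At 37 °C, bacteria in TSB, LB Lennox or CY were grown in 384-well plates from a starting OD595 of 0.01. OD595 was measured every 30 min for 14 h, with the first reading used as background. Fitness is the optical density at the switch to stationary phase as a fraction of the robust mean of no-drug control wells, capped at 1.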

B. subtilis 168 [4] = assay: as above
Outline: as §2
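Throughout, for Bliss interaction score (quartile over a dose matrix): first quartile when negative (synergy) and third quartile when positive (antagonism).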
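Throughout, for fitness (endpoint OD595 vs no drug): OD595 on entry to stationary phase over no-drug wells; at most 1.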

COc1c(N2C[C@@H]3CCCN[C@@H]3C2)c(F)cc2c(=O)c(C(=O)O)cn(C3CC3)c12 [Moxifloxacin] + COc1cc(Cc2cnc(N)nc2N)cc(OC)c1OC [Trimethoprim]
Settings | Bliss interaction score
B. subtilis 168 [2] | 0.0283
S. aureus DSM 20231 [1] | -0.0854
S. aureus Newman | -0.193
S. pneumoniae D39V | 0.0963

one replicate
Settings | fitness
B. subtilis 168 [4], first compound 0.0312 µg/mL, partner 0.1 µg/mL | 0.0166
B. subtilis 168 [4], first compound 0.0312 µg/mL, partner 0.2 µg/mL | 0.0497
B. subtilis 168 [4], first compound 0.0312 µg/mL, partner 0.4 µg/mL | 0.0325
B. subtilis 168 [4], first compound 0.0625 µg/mL, partner 0.1 µg/mL | 0.0397
B. subtilis 168 [4], first compound 0.0625 µg/mL, partner 0.2 µg/mL | 0.0393
B. subtilis 168 [4], first compound 0.0625 µg/mL, partner 0.4 µg/mL | 0.011
B. subtilis 168 [4], first compound 0.125 µg/mL, partner 0.1 µg/mL | 0.0162
B. subtilis 168 [4], first compound 0.125 µg/mL, partner 0.2 µg/mL | 0.0361
B. subtilis 168 [4], first compound 0.125 µg/mL, partner 0.4 µg/mL | 0.0203
B. subtilis 168 [4], first compound 2 µg/mL, partner 1 µg/mL | 0.0073
B. subtilis 168 [4], first compound 2 µg/mL, partner 2 µg/mL | 0.0287
B. subtilis 168 [4], first compound 4 µg/mL, partner 1 µg/mL | 0.0329
B. subtilis 168 [4], first compound 4 µg/mL, partner 2 µg/mL | 0.0297
B. subtilis 168 [4], first compound 8 µg/mL, partner 1 µg/mL | 0.0126
B. subtilis 168 [4], first compound 8 µg/mL, partner 2 µg/mL | 0.0291
S. aureus DSM 20231 [3], first compound 0.0075 µg/mL, partner 0.125 µg/mL | 0.719
S. aureus DSM 20231 [3], first compound 0.015 µg/mL, partner 0.125 µg/mL | 0.627
S. aureus DSM 20231 [3], first compound 0.06 µg/mL, partner 0.125 µg/mL | 0.653
S. aureus DSM 20231 [3], first compound 0.06 µg/mL, partner 0.25 µg/mL | 0.44
S. aureus DSM 20231 [3], first compound 0.06 µg/mL, partner 0.5 µg/mL | 0.191
S. aureus DSM 20231 [3], first compound 0.12 µg/mL, partner 0.125 µg/mL | 0.343
S. aureus DSM 20231 [3], first compound 0.12 µg/mL, partner 0.25 µg/mL | 0.139
S. aureus DSM 20231 [3], first compound 0.12 µg/mL, partner 0.5 µg/mL | 0.0509

fitness
Settings | partner 0.125 µg/mL | partner 0.25 µg/mL | partner 0.5 µg/mL | partner 1 µg/mL
B. subtilis 168 [4], first compound 0.0312 µg/mL | 0.0627 | 0.103 | 0.0656 | –
B. subtilis 168 [4], first compound 0.0625 µg/mL | 0.0366 | 0.0436 | 0.0539 | –
B. subtilis 168 [4], first compound 0.125 µg/mL | 0.0399 | 0.0294 | 0.0335 | –
B. subtilis 168 [4], first compound 2 µg/mL | – | – | 0.0293 | –
B. subtilis 168 [4], first compound 4 µg/mL | – | – | 0.0245 | –
B. subtilis 168 [4], first compound 8 µg/mL | – | – | 0.0127 | –
S. aureus DSM 20231 [3], first compound 0.0075 µg/mL | – | 0.559 | 0.0549 | 0.0253
S. aureus DSM 20231 [3], first compound 0.015 µg/mL | – | 0.525 | 0.0366 | 0.0226
S. aureus DSM 20231 [3], first compound 0.03 µg/mL | 0.552 | 0.376 | 0.041 | 0.0152

CCCCCCCCCC(=O)N[C@H]1[C@H](Oc2c3cc4cc2Oc2ccc(cc2Cl)[C@@H](O[C@@H]2O[C@H](CO)[C@@H](O)[C@H](O)[C@H]2NC(C)=O)[C@@H]2NC(=O)[C@H](NC(=O)[C@@H]4NC(=O)[C@H]4NC(=O)[C@@H](Cc5ccc(c(Cl)c5)O3)NC(=O)[C@H](N)c3ccc(O)c(c3)Oc3cc(O)cc4c3)c3ccc(O)c(c3)-c3c(O[C@H]4O[C@H](CO)[C@@H](O)[C@H](O)[C@@H]4O)cc(O)cc3[C@@H](C(=O)O)NC2=O)O[C@H](CO)[C@@H](O)[C@@H]1O [Teicoplanin] + COc1cc(Cc2cnc(N)nc2N)cc(OC)c1OC [Trimethoprim]
main component drawn
Settings | Bliss interaction score
B. subtilis 168 [2] | -0.0836
S. aureus DSM 20231 [1] | -0.167
S. aureus Newman | -0.249
S. pneumoniae D39V | -0.0668

fitness, S. aureus DSM 20231 [3], main component drawn
Settings | partner 0.125 µg/mL | partner 0.25 µg/mL | partner 0.5 µg/mL | partner 1 µg/mL
first compound 0.1562 µg/mL | 0.733 | 0.591 | 0.0778 | 0.0229
first compound 0.3125 µg/mL | 0.798 | 0.61 | 0.0585 | 0.0126
first compound 0.625 µg/mL | 0.708 | – | 0.0794 | 0.0061

COc1cc(Cc2cnc(N)nc2N)cc(OC)c1OC [Trimethoprim] + CC1=C\[C@@H](O)CC(=O)Cc2nc(co2)C(=O)N2CCC=C2C(=O)O[C@H](C(C)C)[C@H](C)/C=C/C(=O)NC\C=C\1 [Virginiamycin M1]
Settings | Bliss interaction score
B. subtilis 168 [2] | 0.0852
S. aureus DSM 20231 [1] | -0.0966
S. aureus Newman | 0.0354
S. pneumoniae D39V | 0.0652

fitness, one replicate
Settings | partner 0.0625 µg/mL | partner 0.125 µg/mL | partner 0.25 µg/mL | partner 0.5 µg/mL | partner 1 µg/mL
B. subtilis 168 [4], first compound 0.1 µg/mL | 0.85 | 0.855 | 0.991 | – | –
B. subtilis 168 [4], first compound 0.125 µg/mL | 0.738 | 0.722 | 0.71 | – | –
B. subtilis 168 [4], first compound 0.2 µg/mL | 0.755 | 0.808 | 0.865 | – | –
B. subtilis 168 [4], first compound 0.4 µg/mL | 0.57 | 0.483 | 0.576 | – | –
B. subtilis 168 [4], first compound 1 µg/mL | 0.509 | 0.267 | 0.282 | – | –
B. subtilis 168 [4], first compound 2 µg/mL | 0.408 | 0.285 | 0.377 | – | –
S. aureus DSM 20231 [3], first compound 0.125 µg/mL | 0.597 | 0.715 | – | 0.7 | 0.541
S. aureus DSM 20231 [3], first compound 0.25 µg/mL | – | – | – | 0.573 | 0.626
S. aureus DSM 20231 [3], first compound 0.5 µg/mL | – | – | – | 0.155 | 0.204

fitness
Settings | first compound 0.125 µg/mL | first compound 0.25 µg/mL | first compound 0.5 µg/mL | first compound 1 µg/mL
B. subtilis 168 [4], partner 0.0625 µg/mL | – | – | 0.585 | –
B. subtilis 168 [4], partner 0.125 µg/mL | – | 0.704 | 0.471 | –
B. subtilis 168 [4], partner 0.25 µg/mL | – | – | 0.557 | –
S. aureus DSM 20231 [3], partner 0.0625 µg/mL | – | 0.576 | 0.0684 | 0.0383
S. aureus DSM 20231 [3], partner 0.125 µg/mL | – | 0.584 | 0.0768 | 0.0445
S. aureus DSM 20231 [3], partner 0.25 µg/mL | 0.682 | 0.618 | 0.119 | 0.0595

COc1cc(Cc2cnc(N)nc2N)cc(OC)c1OC [Trimethoprim] + CN[C@H](CC(C)C)C(=O)N[C@H]1C(=O)N[C@@H](CC(N)=O)C(=O)N[C@H]2C(=O)N[C@H]3C(=O)N[C@H](C(=O)N[C@H](C(=O)O)c4cc(O)cc(O)c4-c4cc3ccc4O)[C@H](O)c3ccc(c(Cl)c3)Oc3cc2cc(c3O[C@@H]2O[C@H](CO)[C@@H](O)[C@H](O)[C@H]2O[C@H]2C[C@](C)(N)[C@H](O)[C@H](C)O2)Oc2ccc(cc2Cl)[C@H]1O [Vancomycin]
Settings | Bliss interaction score
B. subtilis 168 [2] | 0.0634
S. aureus DSM 20231 [1] | -0.0623
S. aureus Newman | -0.0768
S. pneumoniae D39V | 0.119

S. aureus DSM 20231 [3], first compound 0.125 µg/mL, one replicate
Settings | fitness
partner 0.1875 µg/mL | 0.667
partner 0.375 µg/mL | 0.898
partner 0.75 µg/mL | 0.984

fitness, S. aureus DSM 20231 [3]
Settings | first compound 0.25 µg/mL | first compound 0.5 µg/mL | first compound 1 µg/mL
partner 0.1875 µg/mL | 0.604 | 0.0644 | 0.0331
partner 0.375 µg/mL | 0.613 | – | 0.0412
partner 0.75 µg/mL | 0.62 | – | 0.0581
